Data taken from patent US9593305B2, “Differentiation of pluripotent stem cells” (Janssen Biotech, Inc., priority 2008, dated 2017).

Tests used:
Type in all cases: cell-based
[1] = system: H1 human embryonic stem cells; assay: Primary screening: definitive endoderm differentiation in the absence of activin A, cell number and SOX17 (Example 3); conditions: 2.5 μM compound, 20 ng/ml Wnt3a days 1-2, no activin A, four-day assay
Method: (§1) Briefly, clusters of H1 human embryonic stem cells were grown on reduced growth factor […]™ (Invitrogen; Cat #1356231)-coated tissue culture plastic. Cells were passaged using collagenase (Invitrogen; Cat #17104-019) treatment and gentle scraping, washed to remove residual enzyme, and plated with even dispersal at a ratio of 1:1 (surface area) on reduced growth factor […]™-coated 96-well black plates (Packard ViewPlates; PerkinElmer; Cat #6005182) using volumes of 100 μl/well. Cells were allowed to attach as clusters and then recover log phase growth over a 1 to 3 day period, feeding daily with MEF conditioned medium supplemented with 8 ng/ml bFGF (R&D Systems; Cat #233-FB). Plates were maintained at 37° C., 5% CO2 in a humidified box throughout the duration of assay.
The compounds tested were made available as 5 mM stocks in 96-well plate format, solubilized in 100% DMSO (Sigma; Cat #D2650) and stored at −80° C. The library compounds were further diluted to an intermediate concentration of 0.2 mM in 50 mM HEPES (Invitrogen; Cat #15630-080), 20% DMSO and stored at 4° C. Test conditions were performed in triplicate, feeding on alternate days over a four-day assay period. Primary screening assays were initiated by aspirating culture medium from each well followed by three washes in PBS (Invitrogen; Cat #14190) to remove residual growth factors and serum. On the first day of assay, test volumes of 200 μl per well were added back containing DMEM:F12 base medium (Invitrogen; Cat #11330-032) supplemented with 0.5% FCS (HyClone; Cat #SH30070.03) and 20 ng/ml Wnt3a (R&D Systems; Cat #1324-WN) plus 2.5 μM test compound. On the third day of assay, test volumes of 200 μl per well were added back containing DMEM:F12 base medium supplemented with 2% FCS plus 2.5 μM test compound, without Wnt3a. Positive control samples contained the same base medium supplemented with FCS, substituting 100 ng/ml recombinant human activin A (PeproTech; Cat #120-14) for the test compound throughout the four-day assay along with Wnt3a (20 ng/ml) added only on days 1 and 2. Negative control samples contained DMEM:F12 base medium supplemented with FCS, adding Wnt3a on days 1 and 2 but omitting activin A.
(§2) At the conclusion of four-days of culture, assay plates were washed twice with PBS (Invitrogen; Cat #14190), fixed with 4% paraformaldehyde (Alexis Biochemical; Cat #ALX-350-011) at room temperature for 20 minutes, then washed three times with PBS and permeabilized with 0.5% Triton X-100 (Sigma; Cat #T8760-2) for 20 minutes at room temperature. Cells were washed again three times with PBS and blocked with 4% chicken serum (Invitrogen; Cat #16110082) in PBS for 30 minutes at room temperature. Primary antibody (goat anti-human SOX17; R&D Systems; Cat #AF1924) was diluted 1:100 in 4% chicken serum and added to each well for one hour at room temperature. Alexa Fluor 488 conjugated secondary antibody (chicken anti-goat IgG; Molecular Probes; Cat #AZ1467) was diluted 1:200 in PBS and added to each sample well after washing three times with PBS. To counter stain nuclei, 4 μg/ml Hoechst 33342 (Invitrogen; Cat #H3570) was added for ten minutes at room temperature. Plates were washed once with PBS and left in 100 μl/well PBS for imaging.
(§3) Imaging was performed using an IN Cell Analyzer 1000 (GE Healthcare) utilizing the 51008bs dichroic for cells stained with Hoechst 33342 and Alexa Fluor 488. Exposure times were optimized from positive control wells and from untreated negative control wells stained with secondary antibody alone. Images from 15 fields per well were acquired to compensate for any cell loss during the bioassay and subsequent staining procedures. Measurements for total cell number and total SOX17 intensity were obtained from each well using IN Cell Developer Toolbox 1.7 (GE Healthcare) software. Segmentation for the nuclei was determined based on gray-scale levels (baseline range 100-300) and nuclear size. […]

[2] = system: H1 human embryonic stem cells; assay: Single-cell monolayer assay with EGF/FGF4, serum free, no activin A (Example 10, Table 10); conditions: No AA (with Wnt3a), FGF none
Method: Briefly, clusters of H1 human embryonic stem cells were grown on reduced growth factor […]™ (Invitrogen; Cat #356231)-coated tissue culture plastic. Cultures were treated with Accutase (Sigma; Cat #A6964), using equivalent volumes of […] surface area for 5 minutes at 37° C., then gently resuspended, pelleted by centrifugation, and resuspended in MEF conditioned medium for counting. For assay seeding, cells were plated at 50,000 cells/cm^2 on reduced growth factor […]™-coated 96-well black plates (Packard ViewPlates; Cat #6005182) using volumes of 100 μl/well. Cells were allowed to attach and recover log phase growth over a 3 to 5 day period, feeding daily with MEF conditioned medium supplemented with 8 ng/ml bFGF (R&D Systems; Cat #233-FB). Plates were maintained at 37° C., 5% CO2 in a humidified box throughout the duration of assay.
Stocks of EGF and FGF4 were prepared in a 96-well polypropylene plate (Corning, Inc.; Cat #3960). Compound 22 was available as a 5 mM stock solubilized in 100% DMSO (Sigma; Cat #D2650) and stored at −80° C. Assays were initiated by aspirating culture medium from each well followed by three washes in PBS to remove residual growth factors and serum. […]
On the second day of assay, wells were again aspirated and fed with 80 μl per well were added back containing RPMI 1640 base medium supplemented with 2.5% fatty acid free BSA, 10 ng/ml bFGF, and 3.125 μM Compound 22 plus 20 μl 5× stock of growth factors to yield a final concentration of 2% fatty acid free BSA, 8 ng/ml bFGF and 2.5 μM Compound 22 in assay. Positive control wells contained the same base medium supplemented with 2% fatty acid free BSA, 8 ng/ml bFGF and 100 ng/ml recombinant human activin A. Negative control samples contained the same base medium supplemented with 2% fatty acid free BSA and 8 ng/ml bFGF but omitted treatment with activin A.
as §2, with “with PBS,” for “with PBS (Invitrogen; Cat #14190),”, “Systems; cat” for “Systems; Cat”, “To counterstain” for “To counter stain”
as §3, with “size. Averages and standard deviations were calculated for each replicate data set. Total SOX17 protein expression was reported as total intensity or integrated intensity, defined as total fluorescence of the cell multiplied by the area of the cell. Background was eliminated based on acceptance criteria of gray-scale ranges between 200 to 3500.” for “size.”

[3] = system: H1 human embryonic stem cells; assay: Secondary assay: compound combined with individual growth factors or small molecules, no activin A (Example 5, Table 4); conditions: growth factor 50 ng/ml combined with 2.5 μM compound and Wnt3a, no activin A
Method: as §1, with “Clusters of H1” for “Briefly, clusters of H1”, “(Invitrogen; Cat #356231)-coated tissue culture” for “(Invitrogen; Cat #1356231)-coated tissue culture”, “(Invitrogen; Cat #Cat #17104-019) treatment” for “(Invitrogen; Cat #17104-019) treatment”
Other agents tested were purchased as follows: BMP-7 (Sigma; Cat #B1434), LY294002 (Cayman; Cat 70920), PD98059, U0126, U0124 (EMD Biosciences; Cat #453710), muscimol (Tocris; Cat #0289), biuculline (Tocris; Cat #0130), sodium butyrate (Sigma; Cat #B5887). All growth factors were solubilized in PBS with 0.1% BSA (Sigma; Cat #A7888) and stored frozen at −80° C. Small molecules were solubilized in 100% DMSO (Sigma; Cat #D2650) and stored frozen at −80° C. The compounds were available as 5 mM stocks in 96-well plate format, solubilized in 100% DMSO and stored at −80° C. The compounds of the present invention were further diluted to an intermediate concentration of 0.2 mM in 50 mM HEPES (Invitrogen; Cat #15630-080), 20% DMSO and stored at 4° C. All growth factors and inhibitors were prepared in a deep well, 96-well polypropylene plate, diluted to 5× intermediate stocks in DMEM:F12 base medium at the beginning of assay and stored at 4° C.
A secondary screening assay was conducted, testing in triplicate and feeding on alternate days over the four-day assay timeframe. Assays were initiated by aspirating culture medium from each well followed by three washes in PBS to remove residual growth factors and serum. Test volumes of 80 μl per well were added back containing DMEM:F12 base medium (Invitrogen; Cat #11330-032) supplemented with 0.625% FCS (HyClone; Cat #SH30070.03), 25 ng/ml Wnt3a (R&D Systems), and 3.125 μM compound plus 20 μl 5× stock of growth factor or small molecule to yield a final concentration of 0.5% FCS, 20 ng/ml Wnt3a, and 2.5 μM compound. […] Final assay concentrations of small molecules tested were as follows: muscimol (20 μM), PD98059 (1 μM), LY294002 (2.5 μM), 00124 (1 μM), U0126 (1 μM), sodium butyrate (0.5 mM). Positive control wells (100 μl/well) contained the same base medium supplemented with 0.5% FCS, 20 ng/ml Wnt3a and 100 ng/ml activin A. Negative control wells (100 μl/well) contained the same base medium with 0.5% FCS and 20 ng/ml Wnt3a, omitting activin A.
On day 3, wells were aspirated and fed with 80 μl DMEM:F12 base medium supplemented with 2.5% FCS (HyClone) and 3.125 μM cyclic aniline-pyridinotriazine compound plus 20 μl 5× stock of growth factors or small molecules per well to yield a final concentration of 2% FCS and 2.5 μM compound (omitting Wnt3a) and as denoted on day one for all remaining growth factors or small molecules. Positive control wells (100 μl/well) contained the same base medium supplemented with 2% FCS and 100 ng/ml activin A, omitting Wnt3a. Negative control wells (100 μl/well) contained the same base medium with 2% FCS, omitting both activin A and Wnt3a.
At the conclusion of four-days of culture, assay plates were washed twice with PBS, fixed with 4% paraformaldehyde (Alexis Biochemical; Cat #ALX-350-011) at room temperature for 20 minutes, then washed three times with PBS and permeabilized with 0.5% Triton X-100 (Sigma; Cat #T8760-2) for 20 minutes at room temperature. Cells were washed again three times with PBS and blocked with 4% chicken serum (Invitrogen; Cat #16110082) in PBS for 30 minutes at room temperature.

Compound	Cell Number: % of positive control [1]	Sox17 Expression: % of positive control [1]	Sox17 Expression: Average Total Intensity [1]	Cell Number: Average Total Cell Number ([1]; positive control 100 ng/ml activin A + Wnt3a)	Cell Number, % of positive control ([2]; EGF(50 ng/ml))	Cell Number, Average Total Cell Number ([2]; EGF(50 ng/ml))	Sox17 Expression, % of positive control ([2]; EGF(50 ng/ml))	Sox17 Expression, Average Total Intensity ([2]; EGF(50 ng/ml))	Cell Number, % of positive control ([2]; EGF(100 ng/ml))	Cell Number, Average Total Cell Number ([2]; EGF(100 ng/ml))	Sox17 Expression, % of positive control ([2]; EGF(100 ng/ml))	Sox17 Expression, Average Total Intensity ([2]; EGF(100 ng/ml))	increase in SOX17 expression (% of the activin A/Wnt3a control) [3]
CC(C)(C)OC(=O)NCCc1cccc(Nc2ncnc(-c3ccnc(C#CCO)c3)n2)c1 [Compound 3, 1,1-Dimethylethyl {2-[3-({4[2-(3-hydroxyprop-1-yn-1-yl)pyridin-4-yl]-1,3,5-triazin-2-yl}amino)phenyl]ethyl}carbamate]	133.82 % of positive control	−0.73 % of positive control	−2.34E+06	14211									
EGF: growth factor purchased from R&D Systems					43.85%	5558	18.44%	5.01E+07	53.79%	6818	23.62%	6.42E+07	34%
